Assay results published in patent US20180064646A1, “METHOD AND DEVICE FOR ADMINISTERING XINAFOATE SALT OF N4-(2,2-DIFLUORO-4H-BENZO[1,4]OXAZIN-3-ONE)-6-YL]-5-FLUORO-N2-[3-(METHYLAMINOCARBONYLMETHYLENEOXY)PHENYL]2,4-PYRIMIDINEDIAMINE” (Rigel Pharmaceutical, Inc., priority 2011, published 2018).
Where a name gives a salt, the structure may show the parent alone.

Key:
Format in all cases: physicochemical
[1] = Solvation/hydration assessed by thermogravimetric analysis (TGA); solid form screening; settings: for hydration or solvation: TGA, ambient to 300° C. at 20° C./min
Description: (§1) Hygroscopicity was assessed using dynamic vapor sorption equipment (Surface Measurement Systems Ltd, model DVS-1). The analysis was conducted at 30° C. with a nitrogen gas flow of 200 cc/min. Water sorption and desorption were determined in the range 0 to 90% relative humidity (RH) using 15% RH intervals. Exposure was for a minimum of 2 hours at each humidity, or until the rate of weight change was less than 0.0003%/minute (averaged over 10 minutes). Sample weight was 12.6 mg. The sample was weighed using a CAHN D-200, seven place digital recording balance, which is an integral part of the equipment. […] Solvation/Hydration was assessed by thermogravimetric analysis (TGA) using a TA Instruments Hi-Res TGA 2950 instrument measuring the weight loss of an 8.8 mg sample in an open platinum pan. The sample was heated at 20° C./min from ambient to 300° C. utilizing a nitrogen furnace purge gas.

[2] = Hygroscopicity by dynamic vapor sorption (DVS)
Description: as §1

[3] = Solid state stability and excipient compatibility on storage (drug content and impurities); settings: for % main band remaining versus control: API
Description: In order to test for solid state stability and excipient compatibility, a sample of the xinafoate salt was micronized by jet milling (particle size: D10=0.24 μm; D50=1.15 D90=4.29 μm) and the resulting powder was blended at a 1:100 weight ratio with lactose monohydrate (Respitose grade SV008). Samples were stored for 12 weeks at 25° C./60% relative humidity and 40° C./75% relative humidity and assayed for remaining drug content and impurities at 4, 8 and 12 weeks. A control sample was stored at 5° C./0% humidity.

SMILES: CNC(=O)COc1cccc(Nc2ncc(F)c(Nc3ccc4c(c3)NC(=O)C(F)(F)O4)n2)c1 [free base, N4-[(2,2-difluoro-4H-benzo[1,4]oxazin-3-one)-6-yl]-5-fluoro-N2-[3-(methylaminocarbonylmethyleneoxy)phenyl]-2,4-pyrimidinediamine]
- hydration or solvation [1]: hydrates to form a hemihydrate
- solvate formation ([1]; nine solvents tested): formed a different solvated form in each of nine solvents tested

SMILES: CNC(=O)COc1cccc(Nc2ncc(F)c(Nc3ccc4c(c3)NC(=O)C(F)(F)O4)n2)c1 [xinafoate salt, N4-[(2,2-difluoro-4H-benzo[1,4]oxazin-3-one)-6-yl]-5-fluoro-N2-[3-(methylaminocarbonylmethyleneoxy)phenyl]-2,4-pyrimidinediamine]
- hygroscopicity ([2]; DVS, 0 to 90% RH, 30° C.): essentially non-hygroscopic
- water sorption ([2]; at 90% RH, 30° C., DVS, unmicronized sample): 0.6%
- water sorption ([2]; at 90% relative humidity, following micronization using jet milling): 0.9%
- solid form after micronization ([2]; following micronization using jet milling): no change in solid form
- hydration or solvation [1]: does not show any hydration or solvation
- time for which stable ([3]; 25° C./60% relative humidity): at least two years
- time for which stable ([3]; 40° C./75% relative humidity): at least six months
- % main band remaining versus control ([3]; 25° C./60% RH, 4 weeks, control 5° C./0% humidity): 100.2%
- % main band remaining versus control ([3]; 25° C./60% RH, 8 weeks): 99.9%
- % main band remaining versus control ([3]; 25° C./60% RH, 12 weeks): 100.1%
- % main band remaining versus control ([3]; 40° C./75% RH, 4 weeks): 100.4%
- % main band remaining versus control ([3]; 40° C./75% RH, 8 weeks): 100.0%
- % main band remaining versus control ([3]; 40° C./75% RH, 12 weeks): 100.0%
